In brackets after ≈: the same amount, converted by molar mass.
Tests used:
[1] = tested on: C. difficile; test: In vitro susceptibility assay (MIC); conditions: Clostridioides difficile
[2] = tested on: C. difficile; test: Minimum bactericidal concentration (MBC) assay; conditions: for MBC: Clostridioides difficile
[3] = tested on: Caco-2 cells; test: Cytotoxicity assay (MTS); format: cell-based, human; conditions: concentration up to 16 μg/ml, 24 hrs
Experimental: A cytotoxicity assay against Caco-2 cells was performed to assess the potential toxic effect of the natural products as described before. Caco-2 cells cultured in DMEM media supplemented with 10% FBS, 1% NEAA, and 1% penicillin/streptomycin were grown at 37°C in presence of 5% CO2. Following trypsinization, cells were seeded to 96-well plates and allowed to grow till cells in each well attained 100% confluence. Hit natural products were added to the cells at a starting concentration of 16 μg/ml whereas control wells received DMSO at the same concentration. The plates were incubated for 24 hrs. after which MTS reagent was added and absorbance was recorded at 490 nm using a SpectraMax i3Multi-Mode Microplate Reader. Caco-2 cell survival post treatment with natural products were plotted as percentage viability of natural product-treated cells in comparison to the DMSO-treated cells using GraphPad prism v. 8.0.
Fig 4 Cytotoxicity assay of natural products against Caco-2 cell line. The percentage of viable Caco-2 cells was measured as the ratio of average absorbance of each sample relative to the negative control (DMSO). The absorbance values represent the mean of three samples of each natural product compound with error bars representing standard deviation values for the absorbance.

| SMILES | MIC50 [1] | MIC90 [1] | MIC ([1]; ATCC43255, […]) | MIC ([1]; BAA1870, […]) | MBC ([2]; ATCC43255, […]) | MBC ([2]; BAA1870, […]) | toxicity to Caco-2 cells [3] | toxicity to Caco-2 cells ([3]; […]) | MIC [1] | MIC ([1]; ATCC43255) | MIC ([1]; BAA1870) | bactericidal activity against C. difficile ([2]; in words) |
| --- | --- | --- | --- | --- | --- | --- | --- | --- | --- | --- | --- | --- |
| CN[C@H](CC(C)C)C(=O)N[C@H]1C(=O)N[C@@H](CC(N)=O)C(=O)N[C@H]2C(=O)N[C@H]3C(=O)N[C@H](C(=O)N[C@H](C(=O)O)c4cc(O)cc(O)c4-c4cc3ccc4O)[C@H](O)c3ccc(c(Cl)c3)Oc3cc2cc(c3O[C@@H]2O[C@H](CO)[C@@H](O)[C@H](O)[C@H]2O[C@H]2C[C@](C)(N)[C@H](O)[C@H](C)O2)Oc2ccc(cc2Cl)[C@H]1O [Vancomycin] | 0.5 µg/mL (≈ 0.345 µM) | 1 µg/mL (≈ 0.69 µM) | 1 µg/mL (≈ 0.69 µM) | 1 µg/mL (≈ 0.69 µM) | 1 µg/mL (≈ 0.69 µM) | 4 µg/mL (≈ 2.76 µM) |  |  |  |  |  |  |
| CO[C@H]1[C@H](O)C[C@@H](O[C@@H]2C[C@H](Oc3cc4cc5c(c(O)c4c(O)c3C)C(=O)[C@@H](O[C@H]3C[C@H](O[C@H]4C[C@H](O[C@H]6C[C@@](C)(O)[C@@H](OC(=O)C(C)C)[C@H](C)O6)[C@H](O)[C@@H](C)O4)[C@H](O)[C@@H](C)O3)[C@H]([C@H](OC)C(=O)[C@@H](O)[C@@H](C)O)C5)O[C@H](C)[C@H]2OC(C)=O)O[C@@H]1C [NP-003875] | 0.03 µg/mL (≈ 0.0248 µM) | 0.03 µg/mL (≈ 0.0248 µM) |  |  | 0.03 µg/mL (≈ 0.0248 µM) | 0.03 µg/mL (≈ 0.0248 µM) | did not exhibit toxicity | non-toxic | 0.015 µg/mL (≈ 0.0124 µM) | 0.03 µg/mL (≈ 0.0248 µM) | 0.03 µg/mL (≈ 0.0248 µM) | bactericidal activity |
| CCc1c(Cl)c(O)c(Cl)c(O)c1C(=O)O[C@H]1[C@H](O)[C@H](OC)[C@H](OC/C2=C\C=C\C[C@H](O)/C(C)=C/[C@H](CC)[C@@H](O[C@@H]3OC(C)(C)[C@@H](OC(=O)C(C)C)[C@H](O)[C@@H]3O)/C(C)=C/C(C)=C/C[C@@H]([C@@H](C)O)OC2=O)O[C@@H]1C [Fidaxomicin] | 0.06 µg/mL (≈ 0.0567 µM) | 0.125 µg/mL (≈ 0.118 µM) | 0.06 µg/mL (≈ 0.0567 µM) | 0.06 µg/mL (≈ 0.0567 µM) | 0.06 µg/mL (≈ 0.0567 µM) | 0.125 µg/mL (≈ 0.118 µM) |  |  | 0.125 µg/mL (≈ 0.118 µM) |  |  |  |

Reference: paper PMC9359557, “Discovery of a novel natural product inhibitor of Clostridioides difficile with potent activity in vitro and in vivo” (PLoS ONE, 2022)
